Experimental data: paper PMC2614658 (Antiviral Research, 2008)
Like-named read-outs stand apart in the source and are kept apart here.

Legend:
[1] = test system: vesicular stomatitis virus (VSV-GFP); assay type: cell-based
[2] = test system: Newcastle disease virus (NDV/B1); assay type: cell-based
influenza A/WSN/33 virus [3] = test system: influenza A/WSN/33 virus
influenza A/WSN/33 virus [4] = assay: in vitro; details: human
influenza A/WSN/33 virus [5] = assay: microbe, parasite or virus in culture; details: A549, 24 h
A549 cells = details: 24 h treatment, MTS assay
[6] = test system: influenza B/Yamagata/88 virus; assay type: cell-based
in vitro = details: human
influenza A/WSN/33 virus [7] = details: ∼6 μM PMA
influenza A/WSN/33 virus [8] = assay type: cell-based
[9] = read-out: IC50 (compound concentration of 50% inhibition of viral replication)

C[C@@H]1O[C@@H](O[C@H]2C[C@@H](O)[C@]3(CO)[C@H]4[C@H](O)C[C@]5(C)[C@@H](C6=CC(=O)OC6)CC[C@]5(O)[C@@H]4CC[C@]3(O)C2)[C@H](O)[C@H](O)[C@H]1O [ouabain]
effect on viral replication [1]: significantly inhibit | effect on viral replication [2]: significantly inhibit | decrease in viral titers compared to untreated control (influenza A/WSN/33 virus [3]): 99.1%

CC(=O)c1c(O)c(C)c(O)c(Cc2c(O)c3c(c(C(=O)/C=C/c4ccccc4)c2O)OC(C)(C)C=C3)c1O [rottlerin]
selectivity ratio (influenza A/WSN/33 virus [4]): 39 | IC50 (influenza A/WSN/33 virus [5]; [9]): 0.46 µM | IC50 (influenza A/WSN/33 virus [5]; read-out: IC50 (half maximal inhibitory concentration)): 0.465 µM | concentrations found to be non-toxic / not decreasing cell viability (A549 cells): up to 1.28 μM | reduction in viral titers compared to untreated control (influenza A/WSN/33 virus [3]): 93% | reduction in viral titers compared to untreated control [6]: 80% | CC50 (in vitro): 18.2 µM

CCCCCCCCCCCCCC(=O)O[C@@H]1[C@@H](C)[C@@]2(O)[C@@H](C=C(CO)C[C@]3(O)C(=O)C(C)=C[C@@H]23)[C@@H]2C(C)(C)[C@]12OC(C)=O [PMA, phorbol 12-myristate 13-acetate]
toxicity at the concentration used in the screen (influenza A/WSN/33 virus [7]): toxic | increase in viral titer compared to untreated control (influenza A/WSN/33 virus [3]): 12 fold

C=C(C)[C@@]12O[C@@]3(c4ccccc4)O[C@@H]1[C@@H]1[C@@H]4O[C@]4(CO)[C@@H](O)[C@]4(O)C(=O)C(C)=C[C@H]4[C@@]1(O3)[C@H](C)[C@H]2OC(=O)/C=C/C=C/c1ccccc1 [mezerein]
increase in viral titers (influenza A/WSN/33 virus [8]): 15 fold | increase in viral titer compared to untreated cells [6]: eightfold

CC(=O)O[C@H]1C[C@H](O[C@H]2[C@@H](O)C[C@H](O[C@H]3[C@@H](O)C[C@H](O[C@H]4CC[C@@]5(C)[C@H](CC[C@@H]6[C@@H]5C[C@@H](O)[C@]5(C)[C@@H](C7=CC(=O)OC7)CC[C@]65O)C4)O[C@@H]3C)O[C@@H]2C)O[C@H](C)[C@H]1O[C@@H]1O[C@H](CO)[C@@H](O)[C@H](O)[C@H]1O [lanatoside C]
effect on viral replication [1]: significantly inhibit | effect on viral replication [2]: significantly inhibit | decrease in viral titers compared to untreated control (influenza A/WSN/33 virus [3]; […], 20 nM ouabain or 78 nM lanatoside C): 95.9%

N#Cc1cc2c(OCC(O)CN3CCN(C(c4ccccc4)c4ccccc4)CC3)cccc2[nH]1 (stereo not shown) [SDZ-201106]
concentrations found to be non-toxic / not decreasing cell viability (A549 cells): up to 12.5 μM | SI (CC50/IC50), selective index (influenza A/WSN/33 virus [3]): 7 | reduction in viral titers compared to untreated control (influenza A/WSN/33 virus [3]): 85% | IC50 (influenza A/WSN/33 virus [3]; [9]): 4.1 µM | reduction in viral titers compared to untreated control [6]: 72%
